Experimental data taken from ChEMBL document CHEMBL1201862, “PubChem BioAssay data set” (2004).
The source made the active and inactive calls.

Tests used:
[1] = target: G-protein coupled receptor 55 (Homo sapiens, UniProt Q9Y2T6); experiment: GPR55 agonists via beta-arrestin recruitment, primary screen, imaging, U2OS cells, beta-arrestin-GFP redistribution (AID 1961); format: functional
[2] = target: Induced myeloid leukemia cell differentiation protein Mcl-1 (Homo sapiens, UniProt Q07820); format: functional
[3] = cytotoxicity in HEK-293T cells, dose response, cytotoxicity control for BCR NF-kB inhibitor project, luminescence, B-cell screen hits (AID 489021); format: functional, cell-based;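 note: HEK-293T cells carrying an NF-kB luciferase reporter; cells exposed to compound for about 14 hours before viability readout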
[4] = target: T1, Protein RecA (Mycobacterium tuberculosis, UniProt P9WHJ3); experiment: Fluorescence Cell-Free Homogeneous Dose Retest to Identify Inhibitors of RecA-Intein Splicing Activity. [Related pubchem assays (depositor defined):AID2097, AID2223, AID489010, AID492950]; format: functional
T1 sequence (P9WHJ3 whole entry): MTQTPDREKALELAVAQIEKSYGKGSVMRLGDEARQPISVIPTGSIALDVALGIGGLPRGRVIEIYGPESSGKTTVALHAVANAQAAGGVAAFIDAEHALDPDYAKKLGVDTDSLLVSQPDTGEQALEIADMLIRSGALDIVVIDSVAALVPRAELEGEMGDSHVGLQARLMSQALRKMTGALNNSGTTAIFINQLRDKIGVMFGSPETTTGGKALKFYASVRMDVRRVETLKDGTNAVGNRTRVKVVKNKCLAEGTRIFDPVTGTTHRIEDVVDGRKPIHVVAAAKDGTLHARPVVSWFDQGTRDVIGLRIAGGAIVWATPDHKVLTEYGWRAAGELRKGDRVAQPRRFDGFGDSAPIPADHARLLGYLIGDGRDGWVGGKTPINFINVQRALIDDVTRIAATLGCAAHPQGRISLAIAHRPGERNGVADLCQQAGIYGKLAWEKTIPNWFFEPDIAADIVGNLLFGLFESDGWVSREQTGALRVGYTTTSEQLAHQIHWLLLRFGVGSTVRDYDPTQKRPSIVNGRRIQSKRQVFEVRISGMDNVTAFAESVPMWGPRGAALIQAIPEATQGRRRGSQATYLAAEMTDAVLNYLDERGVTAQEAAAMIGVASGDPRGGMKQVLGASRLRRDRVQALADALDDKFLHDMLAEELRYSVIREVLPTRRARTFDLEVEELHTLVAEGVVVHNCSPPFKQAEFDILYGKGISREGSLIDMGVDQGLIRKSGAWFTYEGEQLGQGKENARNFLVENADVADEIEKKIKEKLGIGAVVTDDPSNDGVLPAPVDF

[5] = target: T2, Replicative DNA helicase DnaB (Mycobacterium tuberculosis, UniProt P9WMR3); experiment: DnaB intein splicing inhibitors, dose response, biochemical, cell-free fluorescence (AID 449749); format: functional
T2 sequence (P9WMR3 whole entry): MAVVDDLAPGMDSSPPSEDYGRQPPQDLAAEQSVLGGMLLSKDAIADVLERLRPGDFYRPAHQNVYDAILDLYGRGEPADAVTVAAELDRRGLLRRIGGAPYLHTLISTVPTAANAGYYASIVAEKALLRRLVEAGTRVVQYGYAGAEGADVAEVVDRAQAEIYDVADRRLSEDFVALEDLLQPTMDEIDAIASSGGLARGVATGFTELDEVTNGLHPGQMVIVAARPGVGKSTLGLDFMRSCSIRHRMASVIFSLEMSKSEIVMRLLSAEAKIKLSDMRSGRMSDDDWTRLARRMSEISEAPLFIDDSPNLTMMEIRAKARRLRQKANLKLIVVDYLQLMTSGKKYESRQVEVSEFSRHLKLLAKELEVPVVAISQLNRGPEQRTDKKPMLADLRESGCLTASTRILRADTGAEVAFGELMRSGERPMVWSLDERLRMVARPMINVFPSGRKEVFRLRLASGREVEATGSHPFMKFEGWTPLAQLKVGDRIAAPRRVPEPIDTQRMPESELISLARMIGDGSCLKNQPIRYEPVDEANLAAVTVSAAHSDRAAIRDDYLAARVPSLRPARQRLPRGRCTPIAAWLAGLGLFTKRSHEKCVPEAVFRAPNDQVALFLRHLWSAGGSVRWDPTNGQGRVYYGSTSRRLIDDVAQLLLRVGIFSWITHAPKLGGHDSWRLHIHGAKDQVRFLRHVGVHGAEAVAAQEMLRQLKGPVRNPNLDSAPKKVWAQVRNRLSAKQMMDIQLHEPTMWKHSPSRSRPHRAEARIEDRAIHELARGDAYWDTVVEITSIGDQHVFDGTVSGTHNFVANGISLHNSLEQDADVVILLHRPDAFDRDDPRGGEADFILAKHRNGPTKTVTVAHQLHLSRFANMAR

[6] = target: Glyceraldehyde-3-phosphate dehydrogenase (Homo sapiens, UniProt P04406)
[7] = target: T3, Alkaline phosphatase, tissue-nonspecific isozyme (Homo sapiens, UniProt P05186); experiment: human TNAP enzyme inhibitors, SAR follow-up, biochemical, luminescent, dose response (AID 1056)
T3 sequence (P05186 whole entry): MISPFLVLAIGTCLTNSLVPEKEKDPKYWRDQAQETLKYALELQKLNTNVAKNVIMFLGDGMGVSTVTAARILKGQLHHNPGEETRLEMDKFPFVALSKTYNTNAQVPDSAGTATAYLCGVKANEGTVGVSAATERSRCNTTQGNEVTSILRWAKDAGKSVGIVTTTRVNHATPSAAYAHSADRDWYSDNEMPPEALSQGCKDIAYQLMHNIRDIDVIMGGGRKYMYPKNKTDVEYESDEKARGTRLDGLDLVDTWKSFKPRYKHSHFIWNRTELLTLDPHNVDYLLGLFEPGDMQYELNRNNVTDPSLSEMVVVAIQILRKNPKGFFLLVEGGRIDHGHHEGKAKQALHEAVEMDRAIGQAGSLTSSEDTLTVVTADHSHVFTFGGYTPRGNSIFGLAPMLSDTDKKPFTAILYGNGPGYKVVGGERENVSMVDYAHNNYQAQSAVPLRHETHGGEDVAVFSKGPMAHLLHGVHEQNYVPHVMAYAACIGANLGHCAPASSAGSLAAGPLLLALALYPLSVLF

[8] = growth suppression of PTEN-null colon cells, dose response, cell-based, HCT116 PTEN knockout (AID 1047); format: functional;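 note: HCT116 colon tumor cells with PTEN knocked out; cells exposed to compound for 60 hours before readout; potency for loss of cell viability measured by luminescence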
[9] = target: Neurotensin receptor type 1 (Homo sapiens, UniProt P30989); format: functional;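 note: Image-based confirmatory dose-response assay measuring agonist activity at NTR1; NTR1-expressing U2OS osteosarcoma cells imaged for beta-arrestin GFP spot formation; agonist potency where compounds increase beta-arrestin recruitment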
[10] = growth suppression of beta-catenin-knockout colon cells, dose response, cell-based, HCT116, human colon tumor (AID 1045); format: functional;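 note: HCT116 colon tumor cells with beta catenin knocked out; cells exposed to compound for 60 hours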
[11] = target: Prothrombin (Homo sapiens, UniProt P00734); experiment: Thrombin 1536 HTS Dose Response Confirmation. [Related pubchem assays: 1046 (Thrombin 1536 HTS; hits were confirmed in this assay)]; format: functional
[12] = target: T4, Bcl-2-like protein 10 (Homo sapiens, UniProt Q9HD36); experiment: displacers of TR3 peptide from Bcl-B, primary screen, selectivity assay for Bfl-1 inhibitor project, biochemical, fluorescence polarization, FITC-TR3 peptide (AID 748);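 note: fluorescence polarization from a fluorescein-labelled TR3 peptide binding purified Bcl-B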
T4 sequence (Q9HD36 whole entry): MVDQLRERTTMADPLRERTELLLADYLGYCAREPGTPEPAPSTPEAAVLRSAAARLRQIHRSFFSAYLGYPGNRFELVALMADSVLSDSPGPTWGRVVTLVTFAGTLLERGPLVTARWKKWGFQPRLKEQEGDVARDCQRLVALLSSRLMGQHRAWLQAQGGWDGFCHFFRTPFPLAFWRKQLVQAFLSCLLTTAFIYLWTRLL

[13] = THP-1 cell cytotoxicity, dose response, cytotoxicity control for non-replicating M. tuberculosis project (AID 489025); format: functional
[14] = cells; format: functional
[15] = HepG2 cell cytotoxicity, dose response, cytotoxicity control for non-replicating M. tuberculosis project (AID 489018); format: functional; settings: Mycobacterium tuberculosis
[16] = target: T5, Bcl-2-related protein A1 (Mus musculus, UniProt Q07440); format: functional;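 note: confirmatory dose–response counterscreen on Bfl-1, used to check hits from a UBC13 polyubiquitin inhibitor campaign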
T5 sequence (Q07440 whole entry): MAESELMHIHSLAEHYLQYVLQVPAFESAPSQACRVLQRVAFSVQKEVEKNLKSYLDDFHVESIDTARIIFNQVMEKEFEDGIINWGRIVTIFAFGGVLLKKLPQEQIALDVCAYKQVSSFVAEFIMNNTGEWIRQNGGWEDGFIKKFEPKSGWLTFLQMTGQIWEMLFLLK

[17] = target: T6, Ubiquitin-conjugating enzyme E2 N (Homo sapiens, UniProt P61088); format: functional
T6 sequence (P61088 whole entry): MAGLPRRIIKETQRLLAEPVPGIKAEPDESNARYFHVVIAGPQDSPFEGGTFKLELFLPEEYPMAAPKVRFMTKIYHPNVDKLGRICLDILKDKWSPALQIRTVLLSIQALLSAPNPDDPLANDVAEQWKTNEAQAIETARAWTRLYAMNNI

[18] = target: T6, Ubiquitin-conjugating enzyme E2 N; format: functional; remark: listed apart in the source
[19] = target: T7, Voltage-gated N-type calcium channel alpha-1B subunit/Amyloid beta A4 precursor protein-binding family A member 1 (Homo sapiens, UniProt Q00975+Q02410); format: protein assay
[20] = target: T7, Voltage-gated N-type calcium channel alpha-1B subunit/Amyloid beta A4 precursor protein-binding family A member 1; format: protein assay; remark: listed apart in the source
[21] = system: BJ; experiment: cytotoxicity toward BJ-TERT fibroblasts, dose response, cell-based, RAS-independent, luminescence (AID 1933); format: functional; settings: Homo sapiens
[22] = cytotoxicity in HPDE-C7 cells, cell-based, fluorescence, HTS (AID 430); format: functional; settings: Homo sapiens
[23] = cytotoxicity in KRAS-transformed pancreatic duct cells, primary screen, cell-based, fluorescence, HTS (AID 431); format: functional; settings: Homo sapiens;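 note: cell line used: HPDE-C7K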
[24] = system: BJ; experiment: cells; format: functional, cell-based; settings: Homo sapiens
[25] = system: BJ; experiment: cytotoxicity toward BJ-TERT-LT-ST fibroblasts, dose response, cell-based, RAS-independent, luminescence (AID 1935); format: functional; settings: Homo sapiens;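 note: BJ fibroblasts immortalized with TERT plus LT and ST oncogenes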
[26] = cytotoxicity toward DRD oncogenic fibroblasts, dose response, cell-based, non-viral oncogenic, luminescence (AID 1934); format: functional; settings: Homo sapiens
[27] = Vero E6 cell cytotoxicity, dose response, cytotoxicity control for non-replicating M. tuberculosis project, secondary assay (AID 492998); format: functional, VeroE6; settings: Vero C1008

Chain of G-protein coupled receptor 55 (Q9Y2T6 whole entry): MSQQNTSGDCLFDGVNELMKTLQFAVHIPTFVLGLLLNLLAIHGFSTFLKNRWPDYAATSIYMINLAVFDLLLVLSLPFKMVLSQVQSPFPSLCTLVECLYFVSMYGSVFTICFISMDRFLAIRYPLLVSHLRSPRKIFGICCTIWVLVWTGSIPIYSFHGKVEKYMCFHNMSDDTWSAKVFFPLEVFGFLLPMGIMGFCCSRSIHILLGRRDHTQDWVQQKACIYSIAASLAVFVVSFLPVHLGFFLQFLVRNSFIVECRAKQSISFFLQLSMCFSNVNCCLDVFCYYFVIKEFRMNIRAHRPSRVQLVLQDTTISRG
Chain of Neurotensin receptor type 1 (P30989 whole entry): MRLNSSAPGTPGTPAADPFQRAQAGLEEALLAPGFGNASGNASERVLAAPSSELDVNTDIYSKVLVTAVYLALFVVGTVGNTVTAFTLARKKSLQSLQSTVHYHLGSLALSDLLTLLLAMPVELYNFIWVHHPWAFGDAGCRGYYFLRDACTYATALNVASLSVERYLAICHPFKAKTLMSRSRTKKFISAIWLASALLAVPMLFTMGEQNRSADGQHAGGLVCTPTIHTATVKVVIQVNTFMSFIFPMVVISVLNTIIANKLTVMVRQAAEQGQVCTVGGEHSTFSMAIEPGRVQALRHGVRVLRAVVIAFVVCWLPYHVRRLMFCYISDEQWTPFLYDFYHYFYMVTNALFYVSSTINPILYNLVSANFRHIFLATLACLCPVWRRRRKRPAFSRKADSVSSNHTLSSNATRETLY
T7 sequence (Q00975 whole entry): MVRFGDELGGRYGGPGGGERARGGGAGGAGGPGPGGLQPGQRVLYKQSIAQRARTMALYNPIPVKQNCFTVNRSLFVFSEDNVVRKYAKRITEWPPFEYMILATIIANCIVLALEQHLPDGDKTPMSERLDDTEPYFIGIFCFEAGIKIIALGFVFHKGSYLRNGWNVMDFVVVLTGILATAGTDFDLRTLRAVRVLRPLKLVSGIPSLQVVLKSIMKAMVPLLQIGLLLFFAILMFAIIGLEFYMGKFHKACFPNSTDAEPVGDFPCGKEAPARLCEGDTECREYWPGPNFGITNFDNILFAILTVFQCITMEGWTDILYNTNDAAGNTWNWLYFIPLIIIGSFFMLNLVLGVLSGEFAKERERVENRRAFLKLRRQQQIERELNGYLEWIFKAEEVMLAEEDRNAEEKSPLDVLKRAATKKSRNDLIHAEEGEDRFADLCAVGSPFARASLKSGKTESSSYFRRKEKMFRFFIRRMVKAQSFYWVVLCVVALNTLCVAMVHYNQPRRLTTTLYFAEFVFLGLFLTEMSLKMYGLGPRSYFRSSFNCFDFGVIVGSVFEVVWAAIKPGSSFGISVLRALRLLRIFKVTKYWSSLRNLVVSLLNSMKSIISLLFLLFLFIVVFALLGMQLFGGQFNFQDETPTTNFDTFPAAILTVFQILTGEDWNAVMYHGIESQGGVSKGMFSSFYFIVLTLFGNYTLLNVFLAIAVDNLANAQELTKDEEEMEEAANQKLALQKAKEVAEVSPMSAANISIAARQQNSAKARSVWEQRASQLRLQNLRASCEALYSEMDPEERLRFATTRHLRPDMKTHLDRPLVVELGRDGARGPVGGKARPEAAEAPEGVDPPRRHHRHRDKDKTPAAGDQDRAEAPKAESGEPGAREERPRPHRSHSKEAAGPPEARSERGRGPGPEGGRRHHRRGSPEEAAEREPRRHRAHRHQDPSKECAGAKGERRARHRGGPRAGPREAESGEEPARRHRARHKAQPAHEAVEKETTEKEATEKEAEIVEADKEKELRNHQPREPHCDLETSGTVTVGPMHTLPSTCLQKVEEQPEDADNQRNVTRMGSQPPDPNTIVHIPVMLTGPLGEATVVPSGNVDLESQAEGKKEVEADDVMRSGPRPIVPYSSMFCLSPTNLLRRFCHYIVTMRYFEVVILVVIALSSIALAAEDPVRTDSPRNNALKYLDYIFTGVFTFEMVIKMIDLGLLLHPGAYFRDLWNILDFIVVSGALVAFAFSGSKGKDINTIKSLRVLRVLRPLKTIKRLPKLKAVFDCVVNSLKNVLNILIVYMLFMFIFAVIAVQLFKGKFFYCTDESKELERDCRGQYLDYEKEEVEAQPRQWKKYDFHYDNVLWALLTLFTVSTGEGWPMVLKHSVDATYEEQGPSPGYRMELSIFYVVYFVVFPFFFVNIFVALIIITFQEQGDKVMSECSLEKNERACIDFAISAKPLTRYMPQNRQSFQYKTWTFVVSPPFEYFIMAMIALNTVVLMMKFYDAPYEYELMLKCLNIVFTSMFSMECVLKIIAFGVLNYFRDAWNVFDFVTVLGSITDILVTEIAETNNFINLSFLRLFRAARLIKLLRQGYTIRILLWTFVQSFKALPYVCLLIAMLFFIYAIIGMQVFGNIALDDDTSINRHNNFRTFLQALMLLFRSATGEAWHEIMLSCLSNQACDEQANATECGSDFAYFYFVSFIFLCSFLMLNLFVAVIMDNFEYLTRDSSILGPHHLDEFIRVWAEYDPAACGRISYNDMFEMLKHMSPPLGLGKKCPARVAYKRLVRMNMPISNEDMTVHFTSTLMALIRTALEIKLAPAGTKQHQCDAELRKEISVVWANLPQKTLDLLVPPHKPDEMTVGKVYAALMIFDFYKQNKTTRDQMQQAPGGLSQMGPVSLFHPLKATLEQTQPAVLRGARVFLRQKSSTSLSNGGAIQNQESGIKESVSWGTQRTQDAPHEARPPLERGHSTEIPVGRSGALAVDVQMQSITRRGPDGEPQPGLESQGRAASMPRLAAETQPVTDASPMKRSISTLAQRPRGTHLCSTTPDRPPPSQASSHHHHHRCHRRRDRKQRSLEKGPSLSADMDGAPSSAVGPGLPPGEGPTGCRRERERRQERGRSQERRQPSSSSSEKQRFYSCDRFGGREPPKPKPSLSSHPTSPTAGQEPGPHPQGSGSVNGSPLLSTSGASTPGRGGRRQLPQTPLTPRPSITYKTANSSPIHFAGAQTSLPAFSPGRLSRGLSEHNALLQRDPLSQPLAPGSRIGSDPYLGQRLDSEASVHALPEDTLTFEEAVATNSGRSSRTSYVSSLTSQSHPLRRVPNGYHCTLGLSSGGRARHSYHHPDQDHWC
T7 sequence (Q02410 whole entry): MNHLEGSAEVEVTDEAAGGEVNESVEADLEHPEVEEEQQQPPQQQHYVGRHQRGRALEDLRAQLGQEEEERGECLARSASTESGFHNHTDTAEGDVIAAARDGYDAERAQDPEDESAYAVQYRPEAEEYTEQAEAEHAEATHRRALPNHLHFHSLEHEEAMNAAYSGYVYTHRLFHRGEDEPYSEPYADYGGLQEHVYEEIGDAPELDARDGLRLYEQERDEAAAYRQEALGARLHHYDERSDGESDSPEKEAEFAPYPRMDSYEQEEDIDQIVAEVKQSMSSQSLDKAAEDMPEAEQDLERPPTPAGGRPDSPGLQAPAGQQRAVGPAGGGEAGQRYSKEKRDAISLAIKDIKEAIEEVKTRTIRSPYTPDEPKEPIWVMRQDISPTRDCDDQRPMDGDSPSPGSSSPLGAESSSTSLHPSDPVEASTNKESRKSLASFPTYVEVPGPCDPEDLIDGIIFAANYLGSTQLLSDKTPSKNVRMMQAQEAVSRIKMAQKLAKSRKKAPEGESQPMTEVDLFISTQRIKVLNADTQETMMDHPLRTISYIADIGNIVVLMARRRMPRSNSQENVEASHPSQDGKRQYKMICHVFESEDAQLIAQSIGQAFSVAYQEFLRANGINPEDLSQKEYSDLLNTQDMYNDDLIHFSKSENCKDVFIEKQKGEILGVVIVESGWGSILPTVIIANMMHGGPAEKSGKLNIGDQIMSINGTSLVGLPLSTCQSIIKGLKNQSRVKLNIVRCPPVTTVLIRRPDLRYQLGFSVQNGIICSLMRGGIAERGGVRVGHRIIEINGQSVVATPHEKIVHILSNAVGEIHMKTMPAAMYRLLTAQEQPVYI
Chain of Glyceraldehyde-3-phosphate dehydrogenase (P04406 whole entry): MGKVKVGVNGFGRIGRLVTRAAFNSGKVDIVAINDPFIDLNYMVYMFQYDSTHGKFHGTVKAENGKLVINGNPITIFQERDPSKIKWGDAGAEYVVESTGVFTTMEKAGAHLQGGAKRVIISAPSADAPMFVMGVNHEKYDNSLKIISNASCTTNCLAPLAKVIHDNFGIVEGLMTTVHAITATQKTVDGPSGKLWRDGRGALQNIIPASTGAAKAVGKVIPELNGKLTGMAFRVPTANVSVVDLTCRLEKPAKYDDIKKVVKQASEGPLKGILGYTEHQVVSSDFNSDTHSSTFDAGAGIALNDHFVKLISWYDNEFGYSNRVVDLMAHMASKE
Chain of Induced myeloid leukemia cell differentiation protein Mcl-1 (Q07820 whole entry): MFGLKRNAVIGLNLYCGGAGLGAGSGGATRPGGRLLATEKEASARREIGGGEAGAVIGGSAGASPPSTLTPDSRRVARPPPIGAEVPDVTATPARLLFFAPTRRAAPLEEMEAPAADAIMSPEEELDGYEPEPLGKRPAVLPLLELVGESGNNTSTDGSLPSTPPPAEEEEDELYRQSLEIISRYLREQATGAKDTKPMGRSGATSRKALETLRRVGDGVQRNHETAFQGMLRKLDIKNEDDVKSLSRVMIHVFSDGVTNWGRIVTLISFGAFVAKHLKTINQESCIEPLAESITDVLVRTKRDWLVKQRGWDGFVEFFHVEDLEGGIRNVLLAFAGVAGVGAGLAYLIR

CCN(CC)C(=O)CC(c1cc(OC)c(OC)c(OC)c1)c1c(OC)cc(OC)c2c(-c3ccccc3)cc(=O)oc12 (centres undefined)
EC50 [1]: 1.31 µM (active)
IC50 [2]: 5.26 µM (active)

COc1ccc(/C=C2/SC(=S)N(CCCC(=O)Nc3cccc(O)c3)C2=O)cc1
IC50 [3]: 55.8 µM (inactive)
EC50 [4]: > 380 µM (inactive)
AC50 [5]: > 380 µM (inactive)

COC(=O)c1cc(-c2ccc(F)cc2F)[nH]n1
IC50 [6]: > 10 µM (inconclusive)
IC50 [7]: 0.192 µM (active)

CC(=O)Nc1cccc(C(=O)/C=C/c2ccc(Br)cc2)c1
EC50 [8]: 3.77 µM (active)
EC50 [9]: 13.3 µM (active)
EC50 [10]: 3.18 µM (active)

Nc1nc(-c2ccco2)nn1C(=O)CCc1ccccc1
IC50 [11]: 0.0191 µM (active)
IC50 [12]: > 100 µM (inactive)

CCCc1cc(NCCCn2ccnc2)n2nc(C)c(-c3ccccc3)c2n1
CC50 [13]: 36.2 µM (active)
IC50 [14]: 29.1 µM (active)
CC50 [15]: > 20 µM (active)

CCOc1ccc(N(C(=O)c2snc(C(N)=O)c2N)C(C(=O)NCC2CCCO2)c2c[nH]c3ccccc23)cc1 (centres undefined)
IC50 [16]: > 20 µM (inactive)
IC50 [17]: 11.1 µM (active)
IC50 [18]: 5.73 µM (active)

CC1CCN(c2ccc(C(=O)O)cc2N)CC1
IC50 [12]: 30.5 µM (active)

CC(C)(C)OC(=O)N1CCC(NC(=O)c2[nH]cnc2C(=O)N[C@@H](Cc2ccccc2)C(=O)OCc2ccccc2)CC1
EC50 [9]: 32.2 µM (inactive)

COc1ccc(OC)c(C2CC(=O)Nc3cc(OC)c(OC)c(OC)c32)c1 (centres undefined)
IC50 [3]: > 80 µM (inactive)

CCc1cccc(CC)c1-n1c(SCC(=O)N2CCc3ccccc3C2)nnc1-c1cccnc1
EC50 [9]: 4.16 µM (active)

CCOC(=O)N1CCN(C(=O)c2ccc3c(c2)N(Cc2cc(C)ccc2C)C(=O)c2ccccc2[S+]3[O-])CC1 (centres undefined)
EC50 [1]: 4.83 µM (active)

CCN(c1ccc(N/C=C2/C(=O)N(Cc3ccc(OC)cc3)C(=O)c3ccccc32)cc1)C(C)C
EC50 [1]: 2.01 µM (active)

CCC(=O)Nc1ccc(Nc2nc(Cl)nc(Nc3ccc(NC(=O)CC)cc3)n2)cc1
IC50 [19]: > 50 µM (inactive)
IC50 [20]: 12.8 µM (active)

O=C1CSC(=S)N1Cc1cccnc1
EC50 [21]: 5.09 µM (active)
CC50 [13]: 3.69 µM (active)
EC50 [22]: 5.21 µM (active)
IC50 [14]: 13.2 µM (active)
EC50 [23]: 3.72 µM (active)
EC50 [24]: 21.1 µM (active)
EC50 [25]: > 150 µM (inconclusive)
EC50 [26]: 9.9 µM (active)
CC50 [27]: 4.93 µM (active)

COC(=O)c1ccc(C(=O)NC2CC(C)(C)Cc3c2cnn3-c2ccc(F)cc2)nc1 (centres undefined)
CC50 [13]: 16.8 µM (active)
IC50 [14]: 6.8 µM (active)
CC50 [15]: > 20 µM (active)
CC50 [27]: 12.2 µM (active)
